Results taken from EP0174371B1, “TRIPHENYLMETHANE DERIVATIVES AND METHOD FOR DETERMINING OXIDATIVE SUBSTANCES USING THEM AS COLOR-FORMING COMPONENT” (WAKO PURE CHEMICAL INDUSTRIES, LTD., priority 1984, dated 1985).
Values after ≈ are worked out from the molar mass of the structure shown.

Tests used:
physchem = settings: pH 7.2, aqueous buffer
[1] = Solubility in water around the neutral pH range; settings: for solubility in water: pH 7.2 (around the neutral range); for solubility in water relative to BSPM: pH 7.2, multiple of the solubility of BSPM
[2] = tested on: H202-POD (peroxidase) system; assay: Oxidation coloring in the H2O2-peroxidase system; settings: statement in words
Source text: The triphenyl methane derivatives according to the present invention in which two groups ―O(CH2)nSO3M (M and n are the same meanings as given above), are present, are unexpectedly different from the triphenyl methane derivative in which two sulfonic acid groups are directly bonded to the benzene nucleus, since they are excellent in oxidation coloring in the H202-POD system, and can be satisfactorily used for the purpose aimed at by the present invention.

[3] = known triphenyl methane type leuco coloring matters, statement in words; cited from earlier work

Structure (SMILES) | solubility in water [1] | solubility in water relative to BSPM [1] | solubility in water in the neutral pH-range [3] | further results
CCN(CC)c1ccc(C(c2ccc(N(CC)CC)cc2)c2ccccc2S(=O)(=O)O)cc1 [BSPM, bis(4-diethylaminophenyl)-2-sulfophenyl methane] |  |  |  | solubility (physchem): 500 µM (≈ 233 µg/mL)
CCN(CC)c1ccc(C(c2ccc(N(CC)CC)cc2)c2ccc(OCCCS(=O)(=O)O)c(OCCCS(=O)(=O)O)c2)cc1 [BSdiproPM, bis(4-N,N-diethylaminophenyl)-3,4-disodium sulfopropoxyphenyl methane] | ≥ 15000 µM | not less than 30 times |  | 
CCN(CC)c1ccc(C(c2ccc(OCCCS(=O)(=O)O)cc2)c2ccc(N(CC)CC)cc2)cc1 [BSproPM, bis(4-N,N-diethylaminophenyl)-4-sodium sulfopropoxyphenyl methane] | 5000 µM | 10 times |  | 
CCN(CC)c1ccc(C(c2ccc(N(CC)CC)cc2)c2ccc(S(=O)(=O)O)cc2S(=O)(=O)O)cc1 [bis(4-diethylaminopheny)-2,4-disulfophenyl methane] |  |  |  | oxidation coloring in the H202-POD system [2]: no coloring takes place
CN(C)c1ccc(C(c2ccccc2)c2ccc(N(C)C)cc2)cc1 [leuco malachite green] |  |  | difficult to dissolve into water in the neutral pH-range | 
CN(C)c1ccc(C(c2ccc(N(C)C)cc2)c2ccc(N(C)C)cc2)cc1 [leucocrystal violet] |  |  | difficult to dissolve into water in the neutral pH-range | 
